Data on 30 compounds can be found in patent US10189841B2, “Purinones as ubiquitin-specific protease 1 inhibitors” (Forma Therapeutics, Inc., priority 2015, dated 2019).

Sequence of USP1 (construct USP1 (I-785, GG670, 671AA)/UAF1 (I-677)-Flag) (O94782 whole entry G670A/G671A): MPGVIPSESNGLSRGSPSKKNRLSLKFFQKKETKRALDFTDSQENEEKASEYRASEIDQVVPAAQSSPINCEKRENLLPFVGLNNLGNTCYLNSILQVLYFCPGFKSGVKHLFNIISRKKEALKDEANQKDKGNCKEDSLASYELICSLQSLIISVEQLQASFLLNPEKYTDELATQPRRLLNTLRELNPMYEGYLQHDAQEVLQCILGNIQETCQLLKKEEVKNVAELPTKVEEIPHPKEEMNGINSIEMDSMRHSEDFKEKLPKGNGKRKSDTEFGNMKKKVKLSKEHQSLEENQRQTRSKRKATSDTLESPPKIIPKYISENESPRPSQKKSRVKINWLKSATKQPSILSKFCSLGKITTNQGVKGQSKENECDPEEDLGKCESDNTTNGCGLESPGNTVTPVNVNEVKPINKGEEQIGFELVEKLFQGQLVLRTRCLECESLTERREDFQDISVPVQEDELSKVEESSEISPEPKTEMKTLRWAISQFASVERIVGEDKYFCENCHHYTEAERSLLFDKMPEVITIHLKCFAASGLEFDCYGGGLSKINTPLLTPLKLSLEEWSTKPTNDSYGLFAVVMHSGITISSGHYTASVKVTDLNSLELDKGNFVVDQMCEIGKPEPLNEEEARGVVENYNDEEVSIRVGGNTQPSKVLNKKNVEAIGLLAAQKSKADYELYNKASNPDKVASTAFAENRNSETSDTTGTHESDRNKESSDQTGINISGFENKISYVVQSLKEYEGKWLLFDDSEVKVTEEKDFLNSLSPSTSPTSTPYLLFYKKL
Sequence of USP1 (construct USP1 (I-785, GG670, 671AA)/UAF1 (I-677)-Flag) (Q8TAF3 whole entry partner): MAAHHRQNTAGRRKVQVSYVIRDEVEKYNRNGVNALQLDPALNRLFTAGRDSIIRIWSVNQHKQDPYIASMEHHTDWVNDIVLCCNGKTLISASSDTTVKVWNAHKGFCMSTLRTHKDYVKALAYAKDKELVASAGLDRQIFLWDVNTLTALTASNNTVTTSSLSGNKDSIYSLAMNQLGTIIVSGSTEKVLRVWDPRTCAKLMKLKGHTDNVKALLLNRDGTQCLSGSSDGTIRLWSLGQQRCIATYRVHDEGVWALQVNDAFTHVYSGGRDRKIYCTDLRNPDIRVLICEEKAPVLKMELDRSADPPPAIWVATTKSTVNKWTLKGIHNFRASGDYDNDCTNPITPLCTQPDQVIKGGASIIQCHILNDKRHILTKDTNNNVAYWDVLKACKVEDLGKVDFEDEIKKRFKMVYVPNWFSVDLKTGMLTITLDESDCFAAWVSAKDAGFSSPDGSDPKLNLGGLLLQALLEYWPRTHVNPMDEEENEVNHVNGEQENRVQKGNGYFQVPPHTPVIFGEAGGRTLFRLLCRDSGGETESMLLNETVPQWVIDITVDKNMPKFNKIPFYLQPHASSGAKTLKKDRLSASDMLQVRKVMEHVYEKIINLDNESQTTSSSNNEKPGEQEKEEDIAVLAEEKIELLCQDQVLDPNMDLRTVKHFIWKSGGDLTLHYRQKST

The assay concerns the target USP1 (construct USP1 (I-785, GG670, 671AA)/UAF1 (I-677)-Flag) (Homo sapiens (Human), UniProt O94782, G670A/G671A). The assay can be described thus: Ubiquitin-Rhodamine 110 assay for USP1 activity. Type of assay: biochemical. Conditions: USP1/UAF1 25 pM, Ub-Rh110 25 nM, 30 min preincubation. The procedure, abridged: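 Ub-Rh110 (25 nM, ≪Km) cleavage read at ex 485/em 535 in Tris pH 8.0, CaCl2, GSH, Prionex, Triton X-100. The screen used 10 µM compound, 100 pM USP1/UAF1 and 45 min at RT.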
The compound `CC(C)c1ccccc1-c1ncc2c(n1)n(Cc1ccc(-n3cccn3)cc1)c(=O)n2CCN(C)C` [Compound I-107, 9-(4-(1H-pyrazol-1-yl)benzyl)-7-(2-(dimethylamino)ethyl)-2-(2-isopropylphenyl)-7,9-dihydro-8H-purin-8-one] displayed an IC50 of 0.2 to 2 µM.

In the case of `CC(C)c1ncccc1-c1ncc2[nH]c(=O)n(Cc3ccc(-n4nccn4)cc3)c2n1` [Compound I-3, 9-(4-(2H-1,2,3-triazol-2-yl)benzyl)-2-(2-isopropylpyridin-3-yl)-7,9-dihydro-8H-purin-8-one], the half-maximal inhibitory concentration (IC50) fell in the range of 0.2 to 2 µM. Regarding `Cn1cc(C(F)(F)F)nc1-c1ccc(Cn2c(=O)n(C)c3cnc(-c4cccnc4N4CC(F)C4)nc32)cc1` [Compound I-134, 2-(2-(3-fluoroazetidin-1-yl)pyridin-3-yl)-7-methyl-9-(4-(1-methyl-4-(trifluoromethyl)-1H-imidazol-2-yl)benzyl)-7,9-dihydro-8H-purin-8-one], the IC50 lay in the range of 0.05 to 0.2 µM. Turning to `CN1CCC(c2ccn(-c3ccc(Cn4c(=O)[nH]c5cnc(-c6cccnc6OCC(F)(F)F)nc54)cc3)n2)CC1` [Compound I-443, 9-(4-(3-(1-methylpiperidin-4-yl)-1H-pyrazol-1-yl)benzyl)-2-(2-(2,2,2-trifluoroethoxy)pyridin-3-yl)-7,9-dihydro-8H-purin-8-one], the IC50 was 0.2 to 2 µM.

The compound `CC(C)c1ccccc1-c1ncc2[nH]c(=O)n(Cc3ccc(-c4ncc[nH]4)cc3)c2n1` [Compound I-437, 9-(4-(1H-imidazol-2-yl)benzyl)-2-(2-isopropylphenyl)-7,9-dihydro-8H-purin-8-one] yielded a half-maximal inhibitory concentration (IC50) of less than 0.05 µM.

As for `CC(C)c1ccccc1-c1ncc2c(n1)n(CC1CCN(C(=O)NC3CC3)CC1)c(=O)n2C` [Compound I-479, N-cyclopropyl-4-((2-(2-isopropylphenyl)-7-methyl-8-oxo-7,8-dihydro-9H-purin-9-yl)methyl)piperidine-1-carboxamide], the IC50 is greater than 2 µM.

On to `CC(C)c1ncccc1-c1ncc2c(n1)n(Cc1c(F)cc(-c3nc(C(F)(F)F)cn3C)cc1F)c(=O)n2C` [Compound I-128, 9-(2,6-difluoro-4-(1-methyl-4-(trifluoromethyl)-1H-imidazol-2-yl)benzyl)-2-(2-isopropylpyridin-3-yl)-7-methyl-7,9-dihydro-8H-purin-8-one], for which the half-inhibitory concentration (IC50) is 0.05 to 0.2 µM. Turning to `Cc1cc(Cl)n(-c2ccc(Cn3c(=O)[nH]c4cnc(-c5ccccc5C(C)C)nc43)cc2)n1` [Compound I-211, 9-(4-(5-chloro-3-methyl-1H-pyrazol-1-yl)benzyl)-2-(2-isopropylphenyl)-7,9-dihydro-8H-purin-8-one], the IC50 was less than 0.05 µM. The compound `CC(C)c1ncccc1-c1ncc2c(n1)n(Cc1ccc(-n3nc(C(F)(F)F)cc3N3CCOCC3)cc1)c(=O)n2C` [Compound I-117, 2-(2-isopropylpyridin-3-yl)-7-methyl-9-(4-(5-morpholino-3-(trifluoromethyl)-1H-pyrazol-1-yl)benzyl)-7,9-dihydro-8H-purin-8-one] had a half-inhibitory concentration (IC50) of less than 0.05 µM.

For the compound `CC(C)c1ccccc1-c1ncc2[nH]c(=O)n([C@@H](C)c3ccc(F)cc3)c2n1` [Compound I-179, (S)-9-(1-(4-fluorophenyl)ethyl)-2-(2-isopropylphenyl)-7,9-dihydro-8H-purin-8-one], the IC50 was 0.05 to 0.2 µM.

`CC(C)c1ccccc1-c1ncc2[nH]c(=O)n(Cc3ccc(C(=O)N4CC5(CCCO5)C4)cc3)c2n1` [Compound I-393, 9-(4-(5-oxa-2-azaspiro[3.4]octane-2-carbonyl)benzyl)-2-(2-isopropylphenyl)-7,9-dihydro-8H-purin-8-one] showed an IC50 of 0.2 to 2 µM.

As to `CC(C)c1ccccc1-c1ncc2[nH]c(=O)n(Cc3ccc(C(=O)NCCN(C)C)cc3)c2n1` [Compound I-408, N-(2-(dimethylamino)ethyl)-4-((2-(2-isopropylphenyl)-8-oxo-7,8-dihydro-9H-purin-9-yl)methyl)benzamide], the half-inhibitory concentration (IC50) is greater than 2 µM. Under `COCCN(C(=O)c1ccc(Cn2c(=O)[nH]c3cnc(-c4ccccc4C(C)C)nc32)cc1)C(C)C` [Compound I-370, N-isopropyl-4-((2-(2-isopropylphenyl)-8-oxo-7,8-dihydro-9H-purin-9-yl)methyl)-N-(2-methoxyethyl)benzamide] stands 0.05 to 0.2 µM. For the compound `CC(C)c1ccccc1-c1ncc2c(n1)n(Cc1ccc(-c3nc(C(F)(F)F)cn3C3CNC3)cc1)c(=O)n2C` [Compound I-436, 9-(4-(1-(azetidin-3-yl)-4-(trifluoromethyl)-1H-imidazol-2-yl)benzyl)-2-(2-isopropylphenyl)-7-methyl-7,9-dihydro-8H-purin-8-one], the IC50 is less than 0.05 µM.

For the compound `Cn1cc(C(F)(F)F)nc1-c1ccc(Cn2c(=O)[nH]c3cnc(-c4cccnc4OC4CCC4)nc32)cc1` [Compound I-419, 2-(2-cyclobutoxypyridin-3-yl)-9-(4-(1-methyl-4-(trifluoromethyl)-1H-imidazol-2-yl)benzyl)-7,9-dihydro-8H-purin-8-one], the IC50 was less than 0.05 µM. `O=c1[nH]c2cnc(-c3cccc4c3OC(F)(F)O4)nc2n1Cc1ccc(-n2cccn2)cc1` [Compound I-25, 9-(4-(1H-pyrazol-1-yl)benzyl)-2-(2,2-difluorobenzo[d][1,3]dioxol-4-yl)-7,9-dihydro-8H-purin-8-one] yielded an IC50 of 0.05 to 0.2 µM. Under `CC(C)c1ccccc1-c1ncc2[nH]c(=O)n(Cc3ccc(C(=O)N4CCC(F)(F)C4)cc3)c2n1` [Compound I-392, 9-(4-(3,3-difluoropyrrolidine-1-carbonyl)benzyl)-2-(2-isopropylphenyl)-7,9-dihydro-8H-purin-8-one] stands less than 0.05 µM; under `CC(C)c1ccccc1-c1ncc2[nH]c(=O)n(CC3CCN(c4cccnc4)CC3)c2n1` [Compound I-143, 2-(2-isopropylphenyl)-9-((1-(pyridin-3-yl)piperidin-4-yl)methyl)-7,9-dihydro-8H-purin-8-one], 0.2 to 2 µM. Turning to `CC(C)c1ncccc1-c1ncc2c(n1)n(Cc1ccc(-c3nc(C(F)(F)F)cn3C)cc1)c(=O)n2C1CS(=O)(=O)C1` [Compound I-121, 7-(1,1-dioxidothietan-3-yl)-2-(2-isopropylpyridin-3-yl)-9-(4-(1-methyl-4-(trifluoromethyl)-1H-imidazol-2-yl)benzyl)-7,9-dihydro-8H-purin-8-one], the IC50 was 0.2 to 2 µM. The compound `CC(C)c1ncccc1-c1ncc2[nH]c(=O)n(Cc3ccc(-c4nc(C(F)(F)F)cn4C)c(F)c3)c2n1` [Compound I-83, 9-(3-fluoro-4-(1-methyl-4-(trifluoromethyl)-1H-imidazol-2-yl)benzyl)-2-(2-isopropylpyridin-3-yl)-7,9-dihydro-8H-purin-8-one] yielded a half-maximal inhibitory concentration (IC50) of less than 0.05 µM.

Compound `CC(C)c1ccccc1-c1ncc2c(n1)n(Cc1ccc(OCC3CCOC3)cc1)c(=O)n2C` (stereo not drawn) [Compound I-229, 2-(2-isopropylphenyl)-7-methyl-9-(4-((tetrahydrofuran-3-yl)methoxy)benzyl)-7,9-dihydro-8H-purin-8-one] gave a half-maximal inhibitory concentration (IC50) of 0.05 to 0.2 µM.

`CC(C)c1ccccc1-c1ncc2c(n1)n(Cc1ccc(NC(=O)NC3CC3)cc1)c(=O)n2C` [Compound I-483, 1-cyclopropyl-3-(4-((2-(2-isopropylphenyl)-7-methyl-8-oxo-7,8-dihydro-9H-purin-9-yl)methyl)phenyl)urea] showed an IC50 of 0.2 to 2 µM. The compound `CC(C)c1ncccc1-c1ncc2c(n1)n(Cc1ccc(-c3nc(C(F)(F)F)cn3C3COC3)cc1)c(=O)n2C` [Compound I-124, 2-(2-isopropylpyridin-3-yl)-7-methyl-9-(4-(1-(oxetan-3-yl)-4-(trifluoromethyl)-1H-imidazol-2-yl)benzyl)-7,9-dihydro-8H-purin-8-one] returned a 50% inhibitory concentration (IC50) of 0.05 to 0.2 µM. The compound `O=c1[nH]c2cnc(-c3cccnc3OC(F)F)nc2n1Cc1ccc(-n2ccc(F)n2)cc1` [Compound I-88, 2-(2-(difluoromethoxy)pyridin-3-yl)-9-(4-(3-fluoro-1H-pyrazol-1-yl)benzyl)-7,9-dihydro-8H-purin-8-one] showed a half-maximal inhibitory concentration (IC50) of 0.2 to 2 µM.

`CC(C)c1ccccc1-c1ncc2c(n1)n(Cc1ccc(-c3ncn(C)c3CO)cc1)c(=O)n2C` [Compound I-288, 9-(4-(5-(hydroxymethyl)-1-methyl-1H-imidazol-4-yl)benzyl)-2-(2-isopropylphenyl)-7-methyl-7,9-dihydro-8H-purin-8-one] yielded an IC50 of 0.2 to 2 µM. For `CC(C)c1ccccc1-c1ncc2[nH]c(=O)n(Cc3ccc(-c4nc(N5CCOCC5)n(C)n4)cc3)c2n1` [Compound I-292, 2-(2-isopropylphenyl)-9-(4-(1-methyl-5-morpholino-1H-1,2,4-triazol-3-yl)benzyl)-7,9-dihydro-8H-purin-8-one], the IC50 lay in the range of 0.05 to 0.2 µM.

`CC(C)c1ccccc1-c1ncc2c(n1)n(Cc1ccc(-c3nccn3C)cc1)c(=O)n2C` [Compound I-257, 2-(2-isopropylphenyl)-7-methyl-9-(4-(1-methyl-1H-imidazol-2-yl)benzyl)-7,9-dihydro-8H-purin-8-one] showed a concentration for half-maximal inhibition (IC50) of less than 0.05 µM. Under `CC(C)c1ccccc1-c1ncc2[nH]c(=O)n(Cc3ccc(-n4cc(CN(C)C)nn4)cc3)c2n1` [Compound I-339, 9-(4-(4-((dimethylamino)methyl)-1H-1,2,3-triazol-1-yl)benzyl)-2-(2-isopropylphenyl)-7,9-dihydro-8H-purin-8-one] stands greater than 2 µM; under `Cc1scnc1-c1ccc(Cn2c(=O)n(C)c3cnc(-c4ccccc4C(C)C)nc32)cc1` [Compound I-303, 2-(2-isopropylphenyl)-7-methyl-9-(4-(5-methylthiazol-4-yl)benzyl)-7,9-dihydro-8H-purin-8-one], less than 0.05 µM; under `Cc1c(-c2ccc(Cn3c(=O)[nH]c4cnc(-c5ccccc5C(C)C)nc43)cc2)cnn1C` [Compound I-252, 9-(4-(1,5-dimethyl-1H-pyrazol-4-yl)benzyl)-2-(2-isopropylphenyl)-7,9-dihydro-8H-purin-8-one], 0.05 to 0.2 µM.

For orientation: IC50 means the concentration that inhibits the measured activity by half.
